For series [1], the target named is Human immunodeficiency virus type 1 protease (Human immunodeficiency virus 1, UniProt Q72874). Description: In vitro inhibition of HIV-1 protease.
Another series relates to CEM-SS. Description: Antiviral activity against HIV-1 infected HXB2/CEM-SS cell lines. Particulars: Homo sapiens. Type of series: functional.
The nature of series [2]: Cmax value was determined between 15 and 30 minutes post administration in fisher rats; value ranges from 200-500. Particulars: rat, in vivo. Format: ADME, organism-based.
Series [3] is described as follows: Plasma half-life following oral administration in Fisher rats. Type of series: ADME, organism-based. Particulars: rat.
The nature of series [4]: Peak plasma level between 0.5 and 1.0 hour in Dawley rats; value ranges from 1021-2551. Format: ADME, organism-based. Particulars: Sprague-Dawley, rat, read-out: Plasma level.
The species named for another series is Rattus norvegicus. Description: (§1) Compound was tested for the duration that the plasma drug concentrations remained above the IC95. The settings on record: in vivo. Format: ADME, organism-based.
The nature of series [5]: Bioavailability in rat (Fisher) (fasted). Format: ADME, organism-based. Particulars: in vivo.
Series [6] in a line: as §1. Type of series: ADME, cell-free.
Series [7] in a line: Plasma half-life following oral administration in fisher rats. Type of series: ADME, organism-based. Particulars: rat.
A short description of series [8]: Bioavailability in fasted fisher rats. The settings on record: rat, in vivo. Type of series: ADME, organism-based.

The structures appear in SMILES notation.

In general, IC50 refers to the concentration that gives 50% inhibition. Lower therefore signals inhibition by little substance. The IC95 is the concentration at which the effect reaches the 95% level. Read a high IC95 as weaker potency. In general, half-life refers to the time needed for the level to fall by half in the phase considered. What is called bioavailability is dose-corrected exposure relative to a reference, in per cent.

In the case of `CC(C)(C)NC(=O)[C@@H]1C[C@@H]2SCC[C@@H]2CN1C[C@@H](O)[C@H](CSc1ccccc1)NC(=O)O[C@H]1CCS(=O)(=O)C1`, in series [1], the IC50 is 1.7 nM. In addition, the IC95 in the series with CEM-SS stood at 59 nM.
On the same counts, the results for `CC(C)[C@@H]1SCC[C@@H]1OC(=O)N[C@@H](Cc1ccccc1)[C@H](O)CN1C[C@H]2CCS[C@H]2C[C@H]1C(=O)NC(C)(C)C` are 2.6 nM and 686 nM.
As for `CC(C)(C)NC(=O)[C@@H]1C[C@@H]2CCCC[C@@H]2CN1C[C@@H](O)[C@H](Cc1ccccc1)NC(=O)[C@H](CC(N)=O)NC(=O)c1ccc2ccccc2n1`, in the series on CEM-SS, the IC95 amounted to 21 nM.
Molecule `CC(C)[C@@H]1[C@H](OC(=O)N[C@@H](Cc2ccccc2)[C@H](O)CN2C[C@H]3CCCC[C@H]3C[C@H]2C(=O)NC(C)(C)C)CCS1(=O)=O` yielded an IC50 in [1] of 4.3 nM. Moreover, in the series with CEM-SS, the IC95 turned out to be 85 nM.
The molecule `CC(C)[C@H]1[C@@H](OC(=O)N[C@@H](Cc2ccccc2)[C@H](O)CN2C[C@H]3CCCC[C@H]3C[C@H]2C(=O)NC(C)(C)C)CCS1(=O)=O` yielded a 50% inhibitory concentration (IC50) in series [1] of 8.1 nM. Moreover, the 95% effect concentration (IC95) in the series on CEM-SS came out at 273 nM.
With `C[C@@H]1[C@H](OC(=O)N[C@@H](Cc2ccccc2)[C@H](O)CN2C[C@H]3CCCC[C@H]3C[C@H]2C(=O)NC(C)(C)C)CCS1(=O)=O`, in series [1], half-maximal inhibition (IC50) required 10 nM. The same molecule came in with an IC95 in the series with CEM-SS of 171 nM.
As for `CC(C)(C)NC(=O)[C@@H]1C[C@@H]2SCC[C@@H]2CN1C[C@@H](O)[C@H](CSc1ccccc1)NC(=O)O[C@@H]1CCS(=O)(=O)C1`, in [1], it took 2 nM to reach half-maximal inhibition (IC50). This molecule registered a concentration for an effect of 95% (IC95) in the series on CEM-SS of 59 nM.
Turning to `CC(C)[C@H]1[C@@H](OC(=O)N[C@@H](CSc2ccccc2)[C@H](O)CN2C[C@H]3CCS[C@H]3C[C@H]2C(=O)NC(C)(C)C)CCS1(=O)=O`, the IC95 with CEM-SS was 89 nM.
In [1], `CC(C)[C@@H]1[C@H](OC(=O)N[C@@H](Cc2ccccc2)[C@H](O)CN2C[C@H]3CCS[C@H]3C[C@H]2C(=O)NC(C)(C)C)CCS1(=O)=O` had a half-inhibitory concentration (IC50) of 1.3 nM. The 95% effect level in the series on CEM-SS (IC95) was put at 38 nM.
For `C[C@H]1[C@H](OC(=O)N[C@@H](CSc2ccccc2)[C@H](O)CN2C[C@H]3CCS[C@H]3C[C@H]2C(=O)NC(C)(C)C)CCS1(=O)=O`, in that order: 1.4 nM and 44 nM.
For `C[C@H]1OCC[C@H]1OC(=O)N[C@@H](CSc1ccccc1)[C@H](O)CN1C[C@H]2CCS[C@H]2C[C@H]1C(=O)NC(C)(C)C`, in that order: 3 nM and 2560 nM.
For `C[C@@H]1[C@@H](OC(=O)N[C@@H](CSc2ccccc2)[C@H](O)CN2C[C@H]3CCS[C@H]3C[C@H]2C(=O)NC(C)(C)C)CCS1(=O)=O`, in that order: 5.2 nM and 45 nM.
Consider `CC(C)[C@H]1[C@@H](OC(=O)N[C@@H](Cc2ccccc2)[C@H](O)CN2C[C@H]3CCS[C@H]3C[C@H]2C(=O)NC(C)(C)C)CCS1(=O)=O`, for which the 50% inhibitory concentration (IC50) in series [1] is 2.6 nM. This molecule also displayed an IC95 with CEM-SS of 77 nM.
For `C[C@H]1[C@@H](OC(=O)N[C@@H](CSc2ccccc2)[C@H](O)CN2C[C@H]3CCS[C@H]3C[C@H]2C(=O)NC(C)(C)C)CCS1(=O)=O`, the 50% inhibitory concentration (IC50) in [1] worked out at 0.4 nM. Moreover, the Cmax in series [2] was found to be 200 ng/mL; in series [4] it was 1020 ng/mL. Further, in series [3], the half-life worked out at 1.55 h. Further, in the series filed under Rattus norvegicus, the Duration stood at 6 h. This molecule also displayed an IC95 in the series on CEM-SS of 31 nM. The same molecule registered a bioavailability in series [5] of 7.4%.
Consider `CC(C)[C@H]1SCC[C@H]1OC(=O)N[C@@H](Cc1ccccc1)[C@H](O)CN1C[C@H]2CCS[C@H]2C[C@H]1C(=O)NC(C)(C)C`, for which the half-inhibitory concentration (IC50) in series [1] is 0.26 nM. Also, the IC95 with CEM-SS turned out to be 85 nM.
With `CC(C)[C@@H]1[C@H](OC(=O)N[C@@H](CSc2ccccc2)[C@H](O)CN2C[C@H]3CCS[C@H]3C[C@H]2C(=O)NC(C)(C)C)CCS1(=O)=O`, the Cmax in [2] turned out to be 200 ng/mL; in series [4], 1020 ng/mL. In series [3], this molecule showed a half-life of 1.4 h. Moreover, the Duration in the series listed under Rattus norvegicus came to 3 h. In addition, it took 9 nM to reach the 95% level in the series with CEM-SS (IC95). This molecule displayed a bioavailability in [5] of 3.5%.
`C[C@@H]1[C@H](OC(=O)N[C@@H](CSc2ccccc2)[C@H](O)CN2C[C@H]3CCS[C@H]3C[C@H]2C(=O)NC(C)(C)C)CCS1(=O)=O` showed an IC50 in series [1] of 0.75 nM. Also, the Duration in [6] is 5 h. In series [7], this molecule came in with a half-life of 2.53 h. The same molecule displayed a bioavailability in [8] of 6.3%. Also, the Cmax in series [2] is 200 ng/mL; in series [4], 1020 ng/mL. Also, in the series on CEM-SS, the 95% effect level (IC95) was put at 19 nM.
In turn, `C[C@@H]1OCC[C@@H]1OC(=O)N[C@@H](CSc1ccccc1)[C@H](O)CN1C[C@H]2CCS[C@H]2C[C@H]1C(=O)NC(C)(C)C` gave a 50% inhibitory concentration (IC50) in series [1] of 0.28 nM. Moreover, in the series with CEM-SS, the IC95 was found to be 162 nM.

For the origin of these results see ChEMBL document CHEMBL1128633, “Synthesis and pharmacokinetics of potent carbamate HIV-1 protease inhibitors containing novel high affinity hydroxyethylamine isosteres” (Bioorg Med Chem Lett, 1995).
